Reference: US12077503B2, “Substituted cyclic amides and their use as herbicides” (FMC CORPORATION, priority 2015, dated 2024)

Tests used:
Type in all cases: in vivo
rice (Oryra sativa) = experiment: Test B flooded paddy test; details: Flood, 250 g ai/ha; 0 to 100 scale where 0 is no effect and 100 is complete control; 13 to 15 d
Procedure, shortened: (§1)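 Percent control, visually estimated after 13–15 d in the greenhouse on a 0–100 basis, compares treated pots with untreated ones; compound was put into paddy water 3 cm above the soil when plants had two leaves.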

[1] = system: sedge, umbrella (small-flower umbrella sedge, Cyperus difformis); experiment: Test B flooded paddy test; details: Flood, 250 g ai/ha; 0 to 100 scale where 0 is no effect and 100 is complete control; 13 to 15 d
Procedure, shortened: as §1

[2] = system: barnyardgrass (Echinochloa crus-galli); experiment: Test B flooded paddy test; details: Flood, 250 g ai/ha; 0 to 100 scale where 0 is no effect and 100 is complete control; 13 to 15 d
Procedure, shortened: as §1

[3] = system: ducksalad (Heteranthera limosa); experiment: Test B flooded paddy test; details: Flood, 250 g ai/ha; 0 to 100 scale where 0 is no effect and 100 is complete control; 13 to 15 d
Procedure, shortened: as §1

[4] = system: ryegrass, Italian (Italian ryegrass, Lolium multiflorum); experiment: Test A preemergence; details: Preemergence; for Plant response rating, Ryegrass, Italian: 125 g ai/ha, visual injury after approximately 10 d, 0 to 100 scale where 0 is no effect and 100 is complete control; for Ryegrass, Italian plant response rating (0 to 100 scale, 0 is no effect, 100 is complete control): 500 g ai/ha, visual injury approx. 10 d
Procedure, shortened: (§2)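 Visual injury, scored on a 0–100 scale relative to untreated controls, was recorded about 10 d after application. Treatments were a preemergence soil spray over planted seeds or a postemergence spray on plants at the one- to two-leaf stage, 2 to 10 cm tall, all in loam soil–sand blend in the greenhouse.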

[5] = system: ragweed (common ragweed, Ambrosia elatior); experiment: Test A preemergence; details: Preemergence; for Plant response rating, Ragweed: 125 g ai/ha, visual injury after approximately 10 d, 0 to 100 scale where 0 is no effect and 100 is complete control; for Ragweed plant response rating (0 to 100 scale, 0 is no effect, 100 is complete control): 500 g ai/ha, visual injury approx. 10 d
Procedure, shortened: as §2

[6] = system: giant foxtail (Setaria faberii); experiment: Test A preemergence; details: Preemergence; for Plant response rating, Foxtail, Giant: 125 g ai/ha, visual injury after approximately 10 d, 0 to 100 scale where 0 is no effect and 100 is complete control; for Foxtail, Giant plant response rating (0 to 100 scale, 0 is no effect, 100 is complete control): 500 g ai/ha, visual injury approx. 10 d
Procedure, shortened: as §2

[7] = system: pigweed (Amaranthus retroflexus); experiment: Test A preemergence; details: Preemergence; for Plant response rating, Pigweed: 125 g ai/ha, visual injury after approximately 10 d, 0 to 100 scale where 0 is no effect and 100 is complete control; for Pigweed plant response rating (0 to 100 scale, 0 is no effect, 100 is complete control): 500 g ai/ha, visual injury approx. 10 d
[8] = system: barnyardgrass (Echinochloa crus-galli); experiment: Test A preemergence; details: Preemergence; for Plant response rating, Barnyardgrass: 125 g ai/ha, visual injury after approximately 10 d, 0 to 100 scale where 0 is no effect and 100 is complete control; for Barnyardgrass plant response rating (0 to 100 scale, 0 is no effect, 100 is complete control): 500 g ai/ha, visual injury approx. 10 d
Procedure, shortened: as §2

Kochia (Kochia scoparia) [9] = experiment: Test A preemergence; details: Preemergence; for Plant response rating, Kochia: 125 g ai/ha, visual injury after approximately 10 d, 0 to 100 scale where 0 is no effect and 100 is complete control; for Kochia plant response rating (0 to 100 scale, 0 is no effect, 100 is complete control): 500 g ai/ha, visual injury approx. 10 d
Procedure, shortened: as §2

corn (Zea mays) = experiment: Test A postemergence; details: for Corn plant response rating: 125 g ai/ha, postemergence, visual injury rating on 0 to 100 scale (0 no effect, 100 complete control), approx. 10 d; for Plant response rating, Corn: Postemergence, 500 g ai/ha, 0 to 100 scale where 0 is no effect and 100 is complete control
Procedure, shortened: as §2

[10] = system: wheat (Triticum aestivum); experiment: Test A postemergence; details: for Wheat plant response rating: 125 g ai/ha, postemergence, visual injury rating on 0 to 100 scale (0 no effect, 100 complete control), approx. 10 d; for Plant response rating, Wheat: Postemergence, 500 g ai/ha, 0 to 100 scale where 0 is no effect and 100 is complete control
Procedure, shortened: as §2

[11] = system: ryegrass, Italian (Italian ryegrass, Lolium multiflorum); experiment: Test A postemergence; details: for Ryegrass, Italian plant response rating: 125 g ai/ha, postemergence, visual injury rating on 0 to 100 scale (0 no effect, 100 complete control), approx. 10 d; for Plant response rating, Ryegrass, Italian: Postemergence, 500 g ai/ha, 0 to 100 scale where 0 is no effect and 100 is complete control
Procedure, shortened: as §2

[12] = system: ragweed (common ragweed, Ambrosia elatior); experiment: Test A postemergence; details: for Ragweed plant response rating: 125 g ai/ha, postemergence, visual injury rating on 0 to 100 scale (0 no effect, 100 complete control), approx. 10 d; for Plant response rating, Ragweed: Postemergence, 500 g ai/ha, 0 to 100 scale where 0 is no effect and 100 is complete control
Procedure, shortened: as §2

[13] = system: giant foxtail (Setaria faberii); experiment: Test A postemergence; details: for Foxtail, Giant plant response rating: 125 g ai/ha, postemergence, visual injury rating on 0 to 100 scale (0 no effect, 100 complete control), approx. 10 d; for Plant response rating, Foxtail, Giant: Postemergence, 500 g ai/ha, 0 to 100 scale where 0 is no effect and 100 is complete control
Procedure, shortened: as §2

[14] = system: blackgrass (Alopecurus myosuroides); experiment: Test A postemergence; details: for Blackgrass plant response rating: 125 g ai/ha, postemergence, visual injury rating on 0 to 100 scale (0 no effect, 100 complete control), approx. 10 d; for Plant response rating, Blackgrass: Postemergence, 500 g ai/ha, 0 to 100 scale where 0 is no effect and 100 is complete control
Procedure, shortened: as §2

[15] = system: pigweed (Amaranthus retroflexus); experiment: Test A postemergence; details: for Pigweed plant response rating: 125 g ai/ha, postemergence, visual injury rating on 0 to 100 scale (0 no effect, 100 complete control), approx. 10 d; for Plant response rating, Pigweed: Postemergence, 500 g ai/ha, 0 to 100 scale where 0 is no effect and 100 is complete control
Procedure, shortened: as §2

[16] = system: Galium (catchweed bedstraw, Galium aparine); experiment: Test A postemergence; details: for Galium plant response rating: 125 g ai/ha, postemergence, visual injury rating on 0 to 100 scale (0 no effect, 100 complete control), approx. 10 d; for Plant response rating, Galium: Postemergence, 500 g ai/ha, 0 to 100 scale where 0 is no effect and 100 is complete control
Procedure, shortened: as §2

[17] = system: barnyardgrass (Echinochloa crus-galli); experiment: Test A postemergence; details: for Barnyardgrass plant response rating: 125 g ai/ha, postemergence, visual injury rating on 0 to 100 scale (0 no effect, 100 complete control), approx. 10 d; for Plant response rating, Barnyardgrass: Postemergence, 500 g ai/ha, 0 to 100 scale where 0 is no effect and 100 is complete control
Procedure, shortened: as §2

Kochia (Kochia scoparia) [18] = experiment: Test A postemergence; details: for Kochia plant response rating: 125 g ai/ha, postemergence, visual injury rating on 0 to 100 scale (0 no effect, 100 complete control), approx. 10 d; for Plant response rating, Kochia: Postemergence, 500 g ai/ha, 0 to 100 scale where 0 is no effect and 100 is complete control
Procedure, shortened: as §2

Row | SMILES | Plant response rating, Rice (rice (Oryra sativa)) | Plant response rating, Sedge, Umbrella [1] | Plant response rating, Barnyardgrass [2] | Plant response rating, Ducksalad [3] | Plant response rating, Ryegrass, Italian [4] | Ryegrass, Italian plant response rating (0 to 100 scale, 0 is no effect, 100 is complete control) [4] | Plant response rating, Ragweed [5] | Ragweed plant response rating (0 to 100 scale, 0 is no effect, 100 is complete control) [5] | Plant response rating, Foxtail, Giant [6] | Foxtail, Giant plant response rating (0 to 100 scale, 0 is no effect, 100 is complete control) [6] | Plant response rating, Pigweed [7] | Pigweed plant response rating (0 to 100 scale, 0 is no effect, 100 is complete control) [7] | Plant response rating, Barnyardgrass [8] | Barnyardgrass plant response rating (0 to 100 scale, 0 is no effect, 100 is complete control) [8] | Plant response rating, Kochia (Kochia (Kochia scoparia) [9]) | Kochia plant response rating (0 to 100 scale, 0 is no effect, 100 is complete control) (Kochia (Kochia scoparia) [9]) | Corn plant response rating (corn (Zea mays)) | Plant response rating, Corn (corn (Zea mays)) | Wheat plant response rating [10] | Plant response rating, Wheat [10] | also measured
1 | Cc1ccc(C2CNC(=O)C2C(=O)Nc2ccccc2F)c(F)c1 (racemic) [Compound 509] | 0 | 0 | 0 | 50 | 0 | 0 | 0 | 0 | 40 | 70 | 0 | 0 | 60 | 90 | 0 | 0 | 0 | 0 | 0 | 0 | Ryegrass, Italian plant response rating [11]: 0; Plant response rating, Ryegrass, Italian [11]: 0; Ragweed plant response rating [12]: 0; Plant response rating, Ragweed [12]: 0; Foxtail, Giant plant response rating [13]: 0; Plant response rating, Foxtail, Giant [13]: 40; Blackgrass plant response rating [14]: 0; Plant response rating, Blackgrass [14]: 20; Pigweed plant response rating [15]: 0; Plant response rating, Pigweed [15]: 0; Galium plant response rating [16]: 0; Plant response rating, Galium [16]: 40; Barnyardgrass plant response rating [17]: 60; Plant response rating, Barnyardgrass [17]: 90; Kochia plant response rating (Kochia (Kochia scoparia) [18]): 0; Plant response rating, Kochia (Kochia (Kochia scoparia) [18]): 20
2 | O=C1NCC(c2ccnc(C(F)(F)F)c2)C1C(=O)Nc1cccc(F)c1F (racemic) [Compound 514] | 20 | 0 | 50 | 100 | 20 | 60 | 0 | 30 | 90 | 90 | 0 | 40 | 90 | 90 | 0 | 50 | 30 | 80 | 30 | 40 | Ryegrass, Italian plant response rating [11]: 20; Plant response rating, Ryegrass, Italian [11]: 40; Ragweed plant response rating [12]: 0; Plant response rating, Ragweed [12]: 20; Foxtail, Giant plant response rating [13]: 70; Plant response rating, Foxtail, Giant [13]: 90; Blackgrass plant response rating [14]: 20; Plant response rating, Blackgrass [14]: 50; Pigweed plant response rating [15]: 0; Plant response rating, Pigweed [15]: 30; Galium plant response rating [16]: 40; Plant response rating, Galium [16]: 50; Barnyardgrass plant response rating [17]: 80; Plant response rating, Barnyardgrass [17]: 90; Kochia plant response rating (Kochia (Kochia scoparia) [18]): 30; Plant response rating, Kochia (Kochia (Kochia scoparia) [18]): 50
